Measured values from patent US7094909B2, “HIV protease inhibitors, compositions containing the same, their pharmaceutical uses and materials for their synthesis” (priority 2001, dated 2006).
Where two headings read alike, the source gives them in different places.

Assays:
[1] = molecular target: T1, HIV-1 protease (Q7S mutant form) (Human immunodeficiency virus type 1 group M subtype B, UniProt P04585, Q495S); assay: HIV-1 Protease RET assay; type: biochemical; details: Ave. Ki (nM), RET assay, Q7S enzyme, Morrison tight binding fit
T1 construct: made in house
How it was run: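 Q7S HIV-1 protease, refolded from urea, 2 nM active dimer with 5 μM EDANS/DABCYL peptide cleaved at Tyr-Pro; fluorescence 340/490 nm. 12 min at 37 °C in 0.1M sodium acetate pH 4.8, 1M NaCl, 10% DMSO. Ki from Morrison tight-binding fit.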

[2] = tested on: HIV-1 (HIV-1 RF, HIV-1 NL4-3) in CEM-SS / MT-2 cells; assay: Cytopathic effect (CPE) inhibition assay (XTT/MTT dye reduction); type: cell-based
How it was run: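 CEM-SS or MT-2 cells were infected with HIV-1 RF or NL4-3 (moi 0.025–0.819) and plated at 2×10^4 cells/well with half-log compound dilutions for 6 days. Viability was read by XTT formazan at 450 nm after 4 h. EC50 restores formazan to 50% of uninfected untreated cells, CC50 halves it in uninfected cells, and TI = CC50/EC50.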

[3] = Human immunodeficiency virus 1, NL43, read-out: Ave CPE EC50 (mM)
[4] = Human immunodeficiency virus 1, NL43, read-out: Ave CPE EC50

SMILES | Ki [1] [nM] | EC50 [2, 3] [nM] | EC50 [2, 4] [nM]
Cc1c(O)cccc1C(=O)N[C@@H](Cc1ccccc1)[C@H](O)C(=O)N1CSC(C)(C)[C@H]1C(=O)NCc1ccc2c(c1)OC(F)(F)O2 [Example A59, (R)-3-((2S,3S)-2-Hydroxy-3-{[1-(3-hydroxy-2-methyl-phenyl)-methanoyl]-amino}-4-phenyl-butanoyl)-5,5-dimethyl-thiazolidine-4-carboxylic acid (2,2-difluoro-benzo[1,3]dioxol-5-ylmethyl)-amide] | 0.19 | 417 | –
Cc1c(O)cccc1C(=O)N[C@@H](Cc1ccccc1)[C@H](O)C(=O)N1CSC(C)(C)[C@H]1C(=O)NCc1cc2ccccc2[nH]1 [Example A61, (R)-3-[(2S,3S)-2-Hydroxy-3-(3-hydroxy-2-methyl-benzoylamino)-4-phenyl-butyryl]-5,5-dimethyl-thiazolidine-4-carboxylic acid (1H-indol-2-ylmethyl)-amide] | 0.99 | – | 1060
Cc1c(O)cccc1C(=O)N[C@@H](Cc1ccccc1)[C@H](O)C(=O)N1CSC(C)(C)[C@H]1C(=O)NCc1cc2ccccc2o1 [Example A62, (R)-3-[(2S,3S)-2-Hydroxy-3-(3-hydroxy-2-methyl-benzoylamino)-4-phenyl-butyryl]-5,5-dimethyl-thiazolidine-4-carboxylic acid (benzofuran-2-ylmethyl)-amide] | 9.6 | – | 2260
Cc1c(O)cccc1C(=O)N[C@@H](Cc1ccccc1)[C@H](O)C(=O)N1CSC(C)(C)[C@H]1C(=O)NCc1cc2ccccc2n1C [Example A63, (R)-3-[(2S,3S)-2-Hydroxy-3-(3-hydroxy-2-methyl-benzoylamino)-4-phenyl-butyryl]-5,5-dimethyl-thiazolidine-4-carboxylic acid (1-methyl-1H-indol-2-ylmethyl)-amide] | 4.5 | – | 1190
Cc1ccccc1CNC(=O)[C@H]1N(C(=O)[C@@H](O)[C@H](Cc2ccccc2)NC(=O)c2cccc3c2CCCN3)CSC1(C)C [Example B2, 1,2,3,4-Tetrahydro-quinoline-5-carboxylic acid {(1S,2S)-1-benzyl-3-[(R)-5,5-dimethyl-4-(2-methyl-benzylcarbamoyl)-thiazolidin-3-yl]-2-hydroxy-3-oxo-propyl}-amide] | 0.35 | – | 87
Cc1ccccc1CNC(=O)[C@H]1N(C(=O)[C@@H](O)[C@H](Cc2ccccc2)NC(=O)N2CC[C@@H](O)C2)CSC1(C)C [Example B3, 3-(2-hydroxy-3-{[1-(3-hydroxy-pyrrolidin-yl)-methanoyl]-amino}-4-phenyl-butanoyl)-5,5-dimethyl-thiazolidine-4-carboxylic acid-2-methyl-benzylamide] | 2.5 | 905 | –
Cc1ccccc1CNC(=O)[C@H]1N(C(=O)[C@@H](O)[C@H](Cc2ccccc2)NC(=O)CSc2nc[nH]n2)CSC1(C)C [Example B4, 3-{2-Hydroxy-4-phenyl-3-[2-(2H-[1,2,4t]triazol-3-ylsufanyl)-ethanoylamino]-butanoyl}5,5-dimethyl-thiazolidine-4-carboxylic acid-2-methyl-benzylamide] | 3 | – | 707
Cc1ccccc1CNC(=O)[C@H]1N(C(=O)[C@@H](O)[C@H](Cc2ccccc2)NC(=O)O[C@@H]2CCS[C@@H]2C(C)C)CSC1(C)C [Example B5, {(1S,2S)-1-Benzyl-3-[(R)-5,5-dimethyl-4-(2-methyl-benzylcarbamoyl)-thiazolidin-3-yl]-2-hydroxy-3-oxo-propyl}-carbamic acid (R)-2-isopropyl-tetrahydro-thiophen-3-yl ester] | 1.2 | – | 314
Cc1ccccc1CNC(=O)[C@H]1N(C(=O)[C@@H](O)[C@H](Cc2ccccc2)NC(=O)c2cccc3[nH]ccc23)CSC1(C)C [Example B8, 1H-Indole-4-carboxylic acid {(1S,2S)-1-benzyl-3-[(R)-5,5-dimethyl-4-(2-methyl-benzylcarbamoyl)-thiazolidin-3-yl]-2-hydroxy-3-oxo-propyl}-amide] | 0.63 | – | 474
Cc1ccccc1CNC(=O)[C@H]1N(C(=O)[C@@H](O)[C@H](Cc2ccccc2)NC(=O)c2cccc3[nH]ncc23)CSC1(C)C [Example B9, 1H -Indazle-4-carboxylic acid {1-benzyl-3-[5,5-dimethyl-4-(2-methyl-benzylcarbamoyl)-thiazolidin-3-yl]-2-hydroxy-3-oxo-propyl}-amide] | 1.1 | – | 452
C#CCOC(=O)N[C@@H](Cc1ccccc1)[C@H](O)C(=O)N1CSC(C)(C)[C@H]1C(=O)NCc1ccccc1C [Example B10, {(1S,2S)-1-Benzyl-3-[(R)-5,5-dimethyl-4-(2-methyl-benzylcarbamoyl)-thiazolidin-3-yl]-2-hydroxy-3-oxo-propyl}-carbamic acid prop-2-ynyl ester] | 0.57 | – | 386
CCC(C)C(=O)N[C@@H](Cc1ccccc1)[C@H](O)C(=O)N1CSC(C)(C)[C@H]1C(=O)NCc1ccccc1C (stereo partly drawn) [Example B12, (R)-3-[(2S,3S)-2-Hydroxy-3-(2-methyl-butyrylamino)-4-phenyl-butyryl]-5,5-dimethyl-thiazolidine-4-carboxylic acid 2-methyl-benzylamide] | 9.9 | – | > 1000
C=CCNC(=O)N[C@@H](Cc1ccccc1)[C@H](O)C(=O)N1CSC(C)(C)[C@H]1C(=O)NCc1ccccc1C [Example B13, (R)-3-[(2S,3S)-3-(3-Allyl-ureido)-2-hydroxy-4-phenyl-butyryl]-5,5-dimethyl-thiazolidine-4-carboxylic acid 2-methyl-benzylamide] | 2 | – | 1460
C=CCCOC(=O)N[C@@H](Cc1ccccc1)[C@H](O)C(=O)N1CSC(C)(C)[C@H]1C(=O)NCc1ccccc1C [Example B14, {(1S,2S)-1-Benzyl-3-[(R)-5,5-dimethyl-4-(2-methyl-benzylcarbamoyl)-thiazolidin-3-yl]-2-hydroxy-3-oxo-propyl}-carbamic acid but-3-enyl ester] | 2.7 | – | 1660
Cc1ccccc1CNC(=O)[C@H]1N(C(=O)[C@@H](O)[C@H](Cc2ccccc2)NC(=O)C2CC2)CSC1(C)C [Example B15, 3-[(S)-3-(Cyclopropanecarbonyl-amino)-2-hydroxy-4-phenyl-butyryl]-5,5-dimethyl-thiazolidine-4-carboxylic acid 2-methyl-benzylamide] | 1.3 | – | 2300
Cc1ccccc1CNC(=O)[C@H]1N(C(=O)[C@@H](O)[C@H](Cc2ccccc2)NC(=O)OC(C)C)CSC1(C)C [Example B16, {(S)-1-Benzyl-3-[5,5-dimethyl-4-(2-methyl-benzylcarbamoyl)-thiazolidin-3-yl]-2-hydroxy-3-oxo-propyl}-carbamic acid isopropyl ester] | 2.6 | – | 1570
C#CCCC(=O)N[C@@H](Cc1ccccc1)[C@H](O)C(=O)N1CSC(C)(C)[C@H]1C(=O)NCc1ccccc1C [Example B18, (R)-3-((2S,3S)-2-Hydroxy-3-pent-4-ynoylamino-4-phenyl-butyryl)-5,5-dimethyl-thiazolidine-4-carboxylic acid 2-methyl-benzylamide] | 0.56 | – | 1250
C=CCNC(=O)[C@H]1N(C(=O)[C@@H](O)[C@H](Cc2ccccc2)NC(=O)O[C@H]2CCOC2)CSC1(C)C [Example B22, [(1S,2S)-3-((R)-4-Allylcarbamoyl-5,5-dimethyl-thiazolidin-3-yl)-1-benzyl-2-hydroxy-3-oxo-propyl]-carbamic acid (S)-(tetrahydro-furan-3-yl) ester] | 12 | – | 246
